Measurements reported in ChEMBL document CHEMBL3526076, “Species-dependent and receptor-selective action of bilobalide on the function of constitutive androstane receptor and pregnane X receptor” (Drug Metab Dispos, 2012).

Experiments:
[1] = biological target: T1, Nuclear receptor subfamily 1 group I member 2 (Rattus norvegicus, UniProt Q9R1A7); assay: Activation of PXR in rat hepatocytes assessed as upregulation of CYP3A23 mRNA expression at 1 to 30 uM after 24 hrs by RT-PCR analysis; assay type: ADME, cell-based, Hepatocyte
T1 sequence (Q9R1A7 whole entry): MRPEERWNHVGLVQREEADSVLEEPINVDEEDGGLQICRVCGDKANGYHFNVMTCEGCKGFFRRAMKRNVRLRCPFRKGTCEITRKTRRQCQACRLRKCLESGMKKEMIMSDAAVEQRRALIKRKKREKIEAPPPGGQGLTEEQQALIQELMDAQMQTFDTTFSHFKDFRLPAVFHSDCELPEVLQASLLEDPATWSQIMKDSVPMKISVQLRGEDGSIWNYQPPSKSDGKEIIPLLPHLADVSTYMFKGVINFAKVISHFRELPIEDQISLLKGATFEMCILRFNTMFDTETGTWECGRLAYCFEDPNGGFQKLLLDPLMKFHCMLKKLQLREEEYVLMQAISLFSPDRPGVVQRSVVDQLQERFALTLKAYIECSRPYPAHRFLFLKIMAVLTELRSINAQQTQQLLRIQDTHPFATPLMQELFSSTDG

HepG2 = assay: Cytotoxicity against human HepG2 cells at 1 to 100 uM after 24 hrs by lactate dehydrogenase assay; assay type: cell-based; conditions: hepg2, 24 h
Hepatocyte = assay: Cytotoxicity against rat hepatocytes at 1 to 100 uM after 24 hrs by lactate dehydrogenase assay; assay type: cell-based
[2] = biological target: T2, Nuclear receptor subfamily 1 group I member 3 (Rattus norvegicus, UniProt Q9QUS1); assay: Activation of CAR in rat hepatocytes assessed as upregulation of CYP2B1 mRNA expression at 10 uM after 24 hrs by RT-PCR analysis relative to phenobarbital; assay type: ADME, cell-based, Hepatocyte
T2 sequence (Q9QUS1 whole entry): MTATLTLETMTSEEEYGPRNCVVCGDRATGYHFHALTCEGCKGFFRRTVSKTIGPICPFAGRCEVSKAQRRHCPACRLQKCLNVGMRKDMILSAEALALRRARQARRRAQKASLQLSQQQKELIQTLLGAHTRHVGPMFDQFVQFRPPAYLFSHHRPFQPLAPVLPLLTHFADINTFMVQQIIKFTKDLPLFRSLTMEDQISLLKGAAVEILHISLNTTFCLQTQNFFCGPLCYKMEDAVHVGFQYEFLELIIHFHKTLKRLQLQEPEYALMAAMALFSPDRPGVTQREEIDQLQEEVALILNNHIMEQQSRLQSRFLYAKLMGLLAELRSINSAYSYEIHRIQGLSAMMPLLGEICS

CAR mRNA [3] = assay: Effect on CAR mRNA expression in rat hepatocytes at 1 uM by RT-PCR analysis relative to control; assay type: ADME, cell-based, Hepatocyte; conditions: read-out: FC
PXR mRNA [4] = assay: Effect on PXR mRNA expression in human hepatocytes at 10 uM by RT-PCR analysis relative to control; assay type: ADME, cell-based, Hepatocyte; conditions: read-out: FC
[5] = biological target: T2, Nuclear receptor subfamily 1 group I member 3; assay: Activation of CAR in rat hepatocytes assessed as effect on CYP2B1 mRNA expression at 1 uM after 24 hrs by RT-PCR analysis; assay type: ADME, cell-based, Hepatocyte
[6] = biological target: T3, Nuclear receptor subfamily 1 group I member 3 (Homo sapiens, UniProt Q14994); assay: Activation of human CAR expressed in rat hepatocytes coexpressing CYP2B1 at 100 uM after 24 hrs by dual luciferase reporter gene assay; assay type: ADME, cell-based, Hepatocyte
T3 sequence (Q14994 whole entry): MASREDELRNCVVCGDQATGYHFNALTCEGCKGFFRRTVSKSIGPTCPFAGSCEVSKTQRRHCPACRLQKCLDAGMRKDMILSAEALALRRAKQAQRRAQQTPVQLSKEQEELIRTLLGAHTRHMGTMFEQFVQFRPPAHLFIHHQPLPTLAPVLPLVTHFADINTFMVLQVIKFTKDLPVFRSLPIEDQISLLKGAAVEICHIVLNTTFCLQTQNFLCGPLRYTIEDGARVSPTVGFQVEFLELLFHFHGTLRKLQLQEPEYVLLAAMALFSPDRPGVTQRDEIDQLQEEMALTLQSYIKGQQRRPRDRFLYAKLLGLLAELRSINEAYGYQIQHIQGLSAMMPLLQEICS

[7] = biological target: T2, Nuclear receptor subfamily 1 group I member 3; assay: Activation of rat CAR expressed in rat hepatocytes coexpressing CYP2B1 at 30 uM after 24 hrs by dual luciferase reporter gene assay relative to phenobarbital; assay type: ADME, cell-based, Hepatocyte
[8] = biological target: T4, Nuclear receptor subfamily 1 group I member 2 (Homo sapiens, UniProt O75469); assay: Activation of PXR in human Hu1108 hepatocytes assessed as effect on CYP3A-mediated testosterone 6beta-hydroxylation at 10 to 50 uM after 24 hrs by HPLC analysis; assay type: ADME, cell-based, Hepatocyte
T4 sequence (O75469 whole entry): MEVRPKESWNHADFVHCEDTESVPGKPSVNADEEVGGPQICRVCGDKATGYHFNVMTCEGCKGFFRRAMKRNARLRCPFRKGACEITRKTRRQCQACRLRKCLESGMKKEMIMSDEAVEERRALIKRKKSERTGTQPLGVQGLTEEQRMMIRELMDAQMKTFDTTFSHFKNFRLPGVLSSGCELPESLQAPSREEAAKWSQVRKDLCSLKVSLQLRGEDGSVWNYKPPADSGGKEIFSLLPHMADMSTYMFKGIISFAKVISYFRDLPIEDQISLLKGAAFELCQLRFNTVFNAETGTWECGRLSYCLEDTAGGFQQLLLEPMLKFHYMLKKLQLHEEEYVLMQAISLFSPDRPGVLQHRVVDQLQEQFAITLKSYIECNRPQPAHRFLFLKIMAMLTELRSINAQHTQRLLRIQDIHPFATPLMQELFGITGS

CAR mRNA [9] = assay: Effect on CAR mRNA expression in human hepatocytes at 10 uM by RT-PCR analysis relative to control; assay type: ADME, cell-based, Hepatocyte; conditions: read-out: FC
PXR mRNA [10] = assay: Effect on PXR mRNA expression in rat hepatocytes at 1 uM by RT-PCR analysis relative to control; assay type: ADME, cell-based, Hepatocyte; conditions: read-out: FC
[11] = biological target: T4, Nuclear receptor subfamily 1 group I member 2; assay: Activation of PXR in human Hu1043 hepatocytes assessed as effect on CYP3A4 mRNA expression at 10 to 60 uM after 24 hrs by RT-PCR analysis; assay type: ADME, cell-based, Hepatocyte
PXR mRNA [12] = assay: Effect on PXR mRNA expression in human hepatocytes at 25 uM by RT-PCR analysis relative to control; assay type: ADME, cell-based, Hepatocyte; conditions: read-out: FC
[13] = biological target: T2, Nuclear receptor subfamily 1 group I member 3; assay: Activation of rat CAR expressed in rat hepatocytes coexpressing CYP2B1 at 100 uM after 24 hrs by dual luciferase reporter gene assay relative to phenobarbital; assay type: ADME, cell-based, Hepatocyte
[14] = biological target: T2, Nuclear receptor subfamily 1 group I member 3; assay: Activation of CAR in rat hepatocytes assessed as increase in CYP2B-mediated benzyloxyresorufin O-dealkylation at 3 uM after 24 hrs by spectrofluorometric analysis relative to phenobarbital; assay type: ADME, cell-based, Hepatocyte
CAR mRNA [15] = assay: Effect on CAR mRNA expression in human hepatocytes at 50 uM by RT-PCR analysis relative to control; assay type: ADME, cell-based, Hepatocyte; conditions: read-out: FC
[16] = biological target: T2, Nuclear receptor subfamily 1 group I member 3; assay: Activation of CAR in rat hepatocytes assessed as increase in CYP2B-mediated benzyloxyresorufin O-dealkylation at 1 uM after 24 hrs by spectrofluorometric analysis relative to phenobarbital; assay type: ADME, cell-based, Hepatocyte
PXR mRNA [17] = assay: Effect on PXR mRNA expression in rat hepatocytes at 10 uM by RT-PCR analysis relative to control; assay type: ADME, cell-based, Hepatocyte; conditions: read-out: FC
PXR mRNA [18] = assay: Effect on PXR mRNA expression in human hepatocytes at 50 uM by RT-PCR analysis relative to control; assay type: ADME, cell-based, Hepatocyte; conditions: read-out: FC

Structure (SMILES): CC(C)(C)[C@]1(O)C[C@@H]2OC(=O)C[C@@]23C(=O)O[C@@H]2OC(=O)[C@H](O)[C@]213
- Activity [1]: Not Active
- Activity (HepG2): Non-toxic
- Activity (Hepatocyte): Non-toxic
- Activity [2]: 18%
- fold induction at 1 µM (CAR mRNA [3]): 1.3
- fold induction at 10 µM (PXR mRNA [4]): 0.7
- Activity [5]: Not Active
- Activity [6]: Not Active
- Activity [7]: 189%
- Activity [8]: Not Active
- fold induction at 10 µM (CAR mRNA [9]): 1.4
- fold induction at 1 µM (PXR mRNA [10]): 1.1
- Activity [11]: Not Active
- fold induction at 25 µM (PXR mRNA [12]): 1.2
- Activity [13]: 115%
- Activity [14]: 44%
- fold induction at 50 µM (CAR mRNA [15]): 1.4
- Activity [16]: 30%
- fold induction at 10 µM (PXR mRNA [17]): 1.4
- fold induction at 50 µM (PXR mRNA [18]): 0.4
